Source: patent US11286268B1, “EIF4E-inhibiting compounds and methods” (EFFECTOR THERAPEUTICS, INC., priority 2019, dated 2022)
Read-outs that look alike come from different tables or passages of the source.

Biological target: recombinant eIF4E (Homo sapiens (Human), UniProt P06730)
Experiment: Fluorescence polarization competition assay for eIF4E binding potency
Method in brief: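 Protein and fluorescent cap-analog probe (EDA-m7GDP-ATTO-550) were mixed first for 5 min, after which serially diluted compound was added to final 75 nM eIF4E, 20 nM probe, 1% DMSO. Reactions equilibrated 30 min at room temperature before polarization was measured.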

[1] = fluorescence polarization competition, 75 nM recombinant eIF4E, 20 nM EDA-m7GDP-ATTO-550, IC50 class, read-out: elF4E FP
[2] = inhibition of eIF4E/EDA-m7GDP-ATTO-550 binding by 50%, Table 4B calculated values, read-out: IC50

recombinant eIF4E, sequence (P06730 whole entry): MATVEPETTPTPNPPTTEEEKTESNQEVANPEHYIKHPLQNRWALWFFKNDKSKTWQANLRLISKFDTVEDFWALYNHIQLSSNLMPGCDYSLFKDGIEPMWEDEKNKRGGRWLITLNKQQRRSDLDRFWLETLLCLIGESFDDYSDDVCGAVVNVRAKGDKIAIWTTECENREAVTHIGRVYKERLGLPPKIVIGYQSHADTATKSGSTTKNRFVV

Row | IC50 [1] [nM] | IC50 [2] [nM] | Structure (SMILES)
1 | < 50 | 19.5 | Cc1cc(-c2cc(Cl)ccc2OCCn2c(C)nc3cc(Cl)c(C4CC4)c(C#N)c3c2=O)c2scc(C(=O)O)c2n1 [compound 1050]
2 | < 50 | 5.02 | Cc1cc(-c2cc(Cl)ccc2OCCn2c(C)nc3cnc(-c4cc(F)cnc4C)c(C#N)c3c2=O)c2scc(C(=O)O)c2n1 [compound 1051]
3 | < 50 | 5.46 | Cc1cc(-c2cc(Cl)ccc2OCCn2c(C)nc3cnc(-c4cc(F)ccc4C)c(C#N)c3c2=O)c2scc(C(=O)O)c2n1 [compound 1052]
4 | < 50 | 5.08 | CC(=O)N(C)c1ncc2nc(C)n(CCOc3ccc(Cl)cc3-c3cc(C)nc4c(C(=O)O)csc34)c(=O)c2c1C#N [compound 1053]
5 | < 50 | 18.6 | Cc1cc(-c2cc(Cl)ccc2OCCn2c(C)nc3cc(Cl)c(N4CCC(O)C4)c(C#N)c3c2=O)c2scc(C(=O)O)c2n1 (centres unmarked) [compound 1054]
6 | < 50 | 11.7 | Cc1cc(-c2cc(Cl)ccc2OCCn2c(C)nc3cc(C(F)(F)F)c(N4CC(C)(O)C4)c(C#N)c3c2=O)c2scc(C(=O)O)c2n1 [compound 1055]
7 | < 50 | 16.1 | Cc1cc(-c2cc(Cl)ccc2OCCn2c(C)nc3cnc(N4CCC(O)C4)c(C#N)c3c2=O)c2scc(C(=O)O)c2n1 (centres unmarked) [compound 1056]
8 | < 50 | 12.5 | Cc1cc(-c2cc(Cl)ccc2OCCn2c(C)nc3cnc(N4CC(C)(O)C4)c(C#N)c3c2=O)c2scc(C(=O)O)c2n1 [compound 1057]
9 | < 50 | 11.1 | Cc1cc(-c2cc(Cl)ccc2OCCn2c(C)nc3cc(C(F)(F)F)c(-c4ccc(Cl)nc4)c(C#N)c3c2=O)c2scc(C(=O)O)c2n1 [compound 1059]
10 | < 50 | 8.54 | COc1ccc(-c2c(Cl)cc3nc(C)n(CCOc4ccc(Cl)cc4-c4cc(C)nc5c(C(=O)O)csc45)c(=O)c3c2C#N)cn1 [compound 1061]
11 | < 50 | 6.63 | CCc1cc(-c2cc(Cl)ccc2OCCn2c(C)nc3cnc(CC)c(C#N)c3c2=O)c2scc(C(=O)O)c2n1 [compound 1062]
12 | < 50 | – | CCCc1ncc2nc(C)n(CCOc3ccc(Cl)cc3-c3cc(C)nc4c(C(=O)O)csc34)c(=O)c2c1C#N [compound 1063]
13 | < 50 | 16.2 | Cc1cc(-c2cc(Cl)ccc2OCCn2c(C)nc3cnc(CCF)c(C#N)c3c2=O)c2scc(C(=O)O)c2n1 [compound 1064]
14 | < 50 | 18.6 | Cc1cc(-c2cc(Cl)ccc2OCCn2c(C)nc3cnc(C(C)F)c(C#N)c3c2=O)c2scc(C(=O)O)c2n1 (centres unmarked) [compound 1065]
15 | 50 to 1000 | 57.4 | COCc1ncc2nc(C)n(CCOc3ccc(Cl)cc3-c3cc(C)nc4c(C(=O)O)csc34)c(=O)c2c1C#N [compound 1066]
16 | < 50 | 10.5 | CCOc1ncc2nc(C)n(CCOc3ccc(Cl)cc3-c3cc(C)nc4c(C(=O)O)csc34)c(=O)c2c1C#N [compound 1067]
17 | 50 to 1000 | 54 | CCc1cc(-c2cc(Cl)ccc2OCCn2c(C)nc3cnc(N)c(C#N)c3c2=O)c2scc(C(=O)O)c2n1 [compound 1071]
18 | < 50 | 37.2 | Cc1cc(-c2cc(Cl)ccc2OCCn2c(C)nc3cnc(N)c(C#N)c3c2=O)c2scc(C(=O)O)c2n1 [compound 1072]

Row | IC50 [1] [nM] | IC50 [2] [nM] | Structure (SMILES)
19 | 50 to 1000 | 58.1 | CCOc1c(C(F)(F)F)cc2nc(C)n(CCOc3ccc(Cl)cc3-c3cc(C)nc4c(C(=O)O)csc34)c(=O)c2c1C#N [compound 1073]
20 | < 50 | 17.4 | Cc1cc(-c2cc(Cl)ccc2OCCn2c(C)nc3cc(C(F)(F)F)c(OCC(F)(F)F)c(C#N)c3c2=O)c2scc(C(=O)O)c2n1 [compound 1074]
21 | < 50 | 6.64 | Cc1cc(-c2cc(Cl)ccc2OCCn2c(C)nc3cc(C(F)(F)F)c(N4CCN(C)CC4=O)c(C#N)c3c2=O)c2scc(C(=O)O)c2n1 [compound 1075]
22 | < 50 | 24.5 | CCCc1cc(-c2cc(Cl)ccc2OCCn2c(C)nc3cnc(C4CC4)c(C#N)c3c2=O)c2scc(C(=O)O)c2n1 [compound 1076]
23 | 50 to 1000 | 245 | CCc1cc(-c2cc(Cl)ccc2OCCn2c(N)nc3cc(Cl)cc(C#N)c3c2=O)c2scc(C(=O)O)c2n1 [compound 1077]
24 | 50 to 1000 | 347 | CCc1cc(-c2cc(Cl)ccc2OCCn2c(=O)[nH]c3cc(Cl)cc(C#N)c3c2=O)c2scc(C(=O)O)c2n1 [compound 1078]
25 | – | 55.9 | Cc1cc(-c2cc(Cl)ccc2OCCn2c(C)nc3cc(C(F)(F)F)c(N4CCN(C)CC4)c(C#N)c3c2=O)c2scc(C(O)(O)C(F)(F)F)c2n1 [compound 1079]
26 | 50 to 1000 | 105 | Cc1cc(-c2cc(Cl)ccc2OCCn2c(C)nc3cc(C(F)(F)F)c(N4CCN(C)CC4)c(C#N)c3c2=O)c2scc(C(O)C(F)(F)F)c2n1 (centres unmarked) [compound 1080]
27 | > 1000 | 1040 | Cc1cc(-c2cc(Cl)ccc2OCCn2c(C)nc3cc(C(F)(F)F)c(-c4cc(F)cnc4C)c(C#N)c3c2=O)c2scc(C(=O)OCCN3CCCC3)c2n1 [compound 1081]
28 | 50 to 1000 | 903 | Cc1cc(-c2cc(Cl)ccc2OCCn2c(C)nc3cc(C(F)(F)F)c(N4CCN(C)CC4)c(C#N)c3c2=O)c2scc(C(=O)OC(C)OC(=O)OC3CCCCC3)c2n1 (centres unmarked) [compound 1082]
29 | < 50 | 44 | CCc1cc(-c2cc(Cl)ccc2OCCn2c(C)nc3cc(C(F)(F)F)c(N4CCN(C)CC4)cc3c2=O)c2scc(C(=O)O)c2n1 [compound 1083]
30 | < 50 | 15 | CCc1cc(-c2cc(Cl)ccc2OCCn2c(C)nc3cc(C(F)(F)F)c(N4CCN(C)CC4)nc3c2=O)c2scc(C(=O)O)c2n1 [compound 1084]
31 | 50 to 1000 | 54.3 | CCc1cc(-c2cc(Cl)ccc2OCCn2c(C)nc3cc(C(F)(F)F)c(N4CCN(C)CC4)c(C#N)c3c2=O)c2scc(C(=O)O)c2n1 [compound 1085]
32 | < 50 | 38.4 | CCc1cc(-c2cc(Cl)ccc2OCCn2c(C)nc3cnc(N4CCN(C)CC4)c(C#N)c3c2=O)c2scc(C(=O)O)c2n1 [compound 1086]
33 | < 50 | 39.2 | CCc1cc(-c2cc(Cl)ccc2OCCn2c(C)nc3cc(C(F)(F)F)c(N4CCN(C)CC4)c(C#N)c3c2=O)c2sc(C)c(C(=O)O)c2n1 [compound 1087]
34 | 50 to 1000 | 53.3 | CCc1cc(-c2cc(Cl)ccc2OCCn2c(C)nc3cc(C(F)(F)F)c(C4=CCN(C)CC4)c(C#N)c3c2=O)c2scc(C(=O)O)c2n1 [compound 1088]
35 | 50 to 1000 | 618 | Cc1cc(-c2cc(Cl)ccc2OCCn2c(C)nc3cnc(N4CCN(C)CC4)c(C#N)c3c2=O)c2sccc2n1 [compound 1089]
36 | 50 to 1000 | 91.4 | Cc1cc(-c2cc(Cl)ccc2OCCn2c(C)nc3cnc(N4CC(N(C)C)C4)c(C#N)c3c2=O)c2sc(C)c(C(=O)O)c2n1 [compound 1091]

Row | Structure (SMILES) | IC50 [1] [nM] | IC50 [2] [nM]
37 | Cc1cc(-c2cc(Cl)ccc2OCCn2c(C)nc3cnc(N4[C@@H]5CC[C@H]4CN(C)C5)c(C#N)c3c2=O)c2sc(C)c(C(=O)O)c2n1 [compound 1092] | < 50 | 42.7
38 | Cc1sc2c(-c3cc(Cl)ccc3OCCn3c(C)nc4cc(C(F)(F)F)c(N5CCN(C)CC5)c(C#N)c4c3=O)ccnc2c1C(=O)O [compound 1093] | 50 to 1000 | 58.6
